Data as given in patent publication US20170334899A1, “AMINO-SUBSTITUTED ISOTHIAZOLES” (Bayer Pharma Aktiengesellschaft, priority 2014, published 2017).

Molecular target: T1, human kinase Mps-1 (Homo sapiens, UniProt P33981)
T1 construct: N-terminally GST-tagged human full length recombinant Mps-1 kinase; GST (N); purchased Invitrogen, Karslruhe, Germany PV4071
T1 sequence (P33981 1-857): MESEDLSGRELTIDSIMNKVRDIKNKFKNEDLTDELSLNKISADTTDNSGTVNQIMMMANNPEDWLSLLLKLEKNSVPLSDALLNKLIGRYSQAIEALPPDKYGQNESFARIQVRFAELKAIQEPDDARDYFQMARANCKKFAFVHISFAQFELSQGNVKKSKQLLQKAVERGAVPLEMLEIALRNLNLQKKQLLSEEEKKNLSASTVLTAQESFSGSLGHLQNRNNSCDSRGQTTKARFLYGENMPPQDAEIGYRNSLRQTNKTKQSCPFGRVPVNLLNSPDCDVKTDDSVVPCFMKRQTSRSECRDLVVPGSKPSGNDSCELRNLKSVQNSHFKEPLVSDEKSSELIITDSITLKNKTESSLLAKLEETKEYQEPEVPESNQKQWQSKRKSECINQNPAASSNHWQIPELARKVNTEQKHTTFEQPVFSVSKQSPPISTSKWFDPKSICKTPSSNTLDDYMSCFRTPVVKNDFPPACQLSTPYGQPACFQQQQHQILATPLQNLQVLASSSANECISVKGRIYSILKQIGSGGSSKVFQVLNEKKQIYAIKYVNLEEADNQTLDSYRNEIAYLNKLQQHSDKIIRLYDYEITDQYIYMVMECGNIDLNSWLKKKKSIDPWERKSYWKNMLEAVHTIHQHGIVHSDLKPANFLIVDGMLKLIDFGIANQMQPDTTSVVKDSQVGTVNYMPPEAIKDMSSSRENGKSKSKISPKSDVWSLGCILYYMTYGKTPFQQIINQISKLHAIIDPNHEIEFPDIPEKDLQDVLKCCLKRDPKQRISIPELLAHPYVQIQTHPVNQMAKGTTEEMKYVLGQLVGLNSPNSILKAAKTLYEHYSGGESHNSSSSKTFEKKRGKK
Test: Mps-1 kinase assay (TR-FRET)
Format: biochemical
Conditions: Mps-1 TR-FRET kinase assay; avg; read-out: Mps1 avg (IC50 [mol/l])
How it was run: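 Inhibition normalised between uninhibited reaction (0%) and enzyme-free wells (100%), using the blank-corrected TR-FRET 665/620 nm ratio after EDTA stop. Reaction: ~0.5 nM GST-Mps-1 full length, 10 μM ATP, 1 μM biotin-peptide, 60 min at 22 °C, after 15 min compound pre-binding, pH 7.7.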

SMILES	IC50 [µM]
Cc1nsc(Nc2ccc(C#N)cn2)c1C(=O)Nc1ccc(OC2CCNCC2)nc1 [Example 28, 5-[(5-Cyanopyridin-2-yl)amino]-3-methyl-N-[6-(piperidin-4-yloxy)pyridin-3-yl]-1,2-thiazole-4-carboxannide]	≥ 20
Cc1nsc(Nc2ccc(C#N)cn2)c1C(=O)Nc1ccc(OC2CCN(CCF)CC2)nc1 [Example 29, 5-[(5-Cyanopyridin-2-yl)amino]-N-(6-{[1-(2-fluoroethyl)piperidin-4-yl]oxy}pyridin-3-yl)-3-methyl-1,2-thiazole-4-carboxamide]	≥ 20
Cc1nsc(Nc2ccc(C#N)cn2)c1C(=O)Nc1ccc(OC2CCN(CC(F)(F)F)CC2)nc1 [Example 30, 5-[(5-Cyanopyridin-2-yl)amino]-3-methyl-N-(6-{[1-(2,2,2-trifluoroethyl)piperidin-4-yl]oxy}pyridin-3-yl)-1,2-thiazole-4-carboxamide]	≥ 20
Cc1nsc(Nc2cnc3ccccc3n2)c1C(=O)Nc1ccc(OC2CCCN(C(=O)OC(C)(C)C)C2)nc1 (stereo not drawn) [Example 31, tert-Butyl 3-{[5-({[3-methyl-5-(quinoxalin-2-ylamino)-1,2-thiazol-4-yl]carbonyl}-amino)pyridin-2-yl]oxy}piperidine-1-carboxylate]	≥ 20
Cc1nsc(Nc2cnc3ccccc3n2)c1C(=O)Nc1ccc(OC2CCCNC2)nc1 (stereo not drawn) [Example 32, 3-Methyl-N-[6-(piperidin-3-yloxy)pyridin-3-yl]-5-(quinoxalin-2-ylamino)-1,2-thiazole-4-carboxannide]	15
Cc1nsc(Nc2cnc3ccccc3n2)c1C(=O)Nc1ccc(OC2CCCN(CC(F)F)C2)nc1 (stereo not drawn) [Example 33, N-(6-{[1-(2,2-Difluoroethyl)piperidin-3-yl]oxy}pyridin-3-yl)-3-methyl-5-(quinoxalin-2-ylamino)-1,2-thiazole-4-carboxamide]	≥ 20
Cc1nsc(Nc2cc(C#N)ccn2)c1C(=O)Nc1ccc(OC2CCCN(C(=O)OC(C)(C)C)C2)nc1 (stereo not drawn) [Example 34, tert-Butyl 3({5-[({5-[(4-cyanopyridin-2-yl)amino]-3-methyl-1,2-thiazol-4-yl}-carbonyl)amino]pyridin-2-yl}oxy)piperidine-1-carboxylate]	≥ 20
Cc1nsc(Nc2cnc(C(F)(F)F)cn2)c1C(=O)Nc1ccc(OCCNCCC(F)(F)F)nc1 [Example 323, 3-methyl-5-{[5-(trifluoromethyl)pyrazin-2-yl]amino}-N-(6-{2-[(3,3,3-trifluoropropyl)amino]ethoxy}pyridin-3-yl)-1,2-thiazole-4-carboxamide]	≥ 20
Cc1nsc(Nc2cnc(C(F)(F)F)cn2)c1C(=O)Nc1ccc(OC2CCN(C(CF)CF)CC2)nc1 [Example 324, N-(6-{[1-(1,3-difluoropropan-2-yl)piperidin-4-yl]oxy}pyridin-3-yl)-3-methyl-5-{[5-(trifluoromethyl)pyrazin-2-yl]amino}-1,2-thiazole-4-carboxamide]	≥ 20
Cc1nsc(Nc2cnc(C(F)(F)F)cn2)c1C(=O)Nc1ccc(OC2CCCN(CC(F)F)C2)nc1 (stereo not drawn) [Example 330, N-(6-{[1-(2,2-difluoroethyl)piperidin-3-yl]oxy}pyridin-3-yl)-3-methyl-5-{[5-(trifluoromethyl)pyrazin-2-yl]amino}-1,2-thiazole-4-carboxamide]	≥ 20
Cc1nsc(Nc2cnc(C(F)(F)F)cn2)c1C(=O)Nc1ccc(OC2CCCN(C(CF)CF)C2)nc1 (stereo not drawn) [Example 333, N-(6-{[1-(1,3-difluoropropan-2-yl)piperidin-3-yl]oxy}pyridin-3-yl)-3-methyl-5-{[5-(trifluoromethyl)pyrazin-2-yl]amino}-1,2-thiazole-4-carboxamide]	≥ 20
Cc1nsc(Nc2cnc(C(F)(F)F)cn2)c1C(=O)Nc1ccc(F)c(OCC2CCCN(CC(F)F)C2)c1 (stereo not drawn) [Example 334, N-(3-{[1-(2,2-difluoroethyl)piperidin-3-yl]methoxy}-4-fluorophenyl)-3-methyl-5-{[5-(trifluoromethyl)pyrazin-2-yl]amino}-1,2-thiazole-4-carboxamide]	≥ 20
Cc1nsc(Nc2cnc(C(F)(F)F)cn2)c1C(=O)Nc1ccc(F)c(OCC2CCCN(CC(F)(F)F)C2)c1 (stereo not drawn) [Example 337, N-(4-fluoro-3-{[1-(2,2,2-trifluoroethyl)piperidin-3-yl]methoxy}phenyl)-3-methyl-5-{[5-(trifluoromethyl)pyrazin-2-yl]amino}-1,2-thiazole-4-carboxamide]	≥ 20
Cc1nsc(Nc2cnc(C(F)(F)F)cn2)c1C(=O)Nc1ccc(F)c(OCC2CCCN(CCC(F)(F)F)C2)c1 (stereo not drawn) [Example 338, N-(4-fluoro-3-{[1-(3,3,3-trifluoropropyl)piperidin-3-yl]methoxy}phenyl)-3-methyl-5-{[5-(trifluoromethyl)pyrazin-2-yl]amino}-1,2-thiazole-4-carboxamide]	≥ 20

Now from value to compound:

IC50 [µM]	SMILES
≥ 20	Cc1nsc(Nc2cnc(C(F)(F)F)cn2)c1C(=O)Nc1ccc(OCC2CCCN(CCF)C2)nc1 (stereo not drawn) [Example 325, N-(6-{[1-(2-fluoroethyl)piperidin-3-yl]methoxy}pyridin-3-yl)-3-methyl-5-{[5-(trifluoromethyl)pyrazin-2-yl]amino}-1,2-thiazole-4-carboxamide]
≥ 20	Cc1nsc(Nc2cnc(C(F)(F)F)cn2)c1C(=O)Nc1ccc(OCC2CCCN(CC(F)(F)F)C2)nc1 (stereo not drawn) [Example 326, 3-methyl-N-(6-{[1-(2,2,2-trifluoroethyl)piperidin-3-yl]methoxy}pyridin-3-yl)-5-{[5-(trifluoromethyl)pyrazin-2-yl]amino}-1,2-thiazole-4-carboxamide]
≥ 20	Cc1nsc(Nc2cnc(C(F)(F)F)cn2)c1C(=O)Nc1ccc(OCC2CCCN(CC(F)F)C2)nc1 (stereo not drawn) [Example 327, N-(6-{[1-(2,2-difluoroethyl)piperidin-3-yl]methoxy}pyridin-3-yl)-3-methyl-5-{[5-(trifluoromethyl)pyrazin-2-yl]amino}-1,2-thiazole-4-carboxamide]
≥ 20	Cc1nsc(Nc2cnc(C(F)(F)F)cn2)c1C(=O)Nc1ccc(OCC2CCCN(CCC(F)(F)F)C2)nc1 (stereo not drawn) [Example 328, 3-methyl-5-{[5-(trifluoromethyl)pyrazin-2-yl]amino}-N-(6-{[1-(3,3,3-trifluoropropyl)piperidin-3-yl]methoxy}pyridin-3-yl)-1,2-thiazole-4-carboxamide]
≥ 20	Cc1nsc(Nc2cnc(C(F)(F)F)cn2)c1C(=O)Nc1ccc(OC2CCCN(CCF)C2)nc1 (stereo not drawn) [Example 329, N-(6-{[1-(2-fluoroethyl)piperidin-3-yl]oxy}pyridin-3-yl)-3-methyl-5-{[5-(trifluoromethyl)pyrazin-2-yl]amino}-1,2-thiazole-4-carboxamide]
≥ 20	Cc1nsc(Nc2cnc(C(F)(F)F)cn2)c1C(=O)Nc1ccc(OC2CCCN(CCC(F)(F)F)C2)nc1 (stereo not drawn) [Example 332, 3-methyl-5-{[5-(trifluoromethyl)pyrazin-2-yl]amino}-N-(6-{[1-(3,3,3-trifluoropropyl)piperidin-3-yl]oxy}pyridin-3-yl)-1,2-thiazole-4-carboxamide]
≥ 20	Cc1nsc(Nc2cnc(C(F)(F)F)cn2)c1C(=O)Nc1ccc(F)c(OCC2CCCN(CCF)C2)c1 (stereo not drawn) [Example 336, N-(4-fluoro-3-{[1-(2-fluoroethyl)piperidin-3-yl]methoxy}phenyl)-3-methyl-5-{[5-(trifluoromethyl)pyrazin-2-yl]amino}-1,2-thiazole-4-carboxamide]
